Measured values: patent US20230148005A1, “MACROCYCLIC COMPOUNDS AND USES THEREOF” (THESEUS PHARMACEUTICALS, INC., priority 2020, published 2023)

Experiments:
EGFR^L858R/T790M/C^797S = EGFR^L858R/T790M/C^797S (Homo sapiens, UniProt P00533, C797S/L858R/T790M); assay: in vitro kinase assay (HTRF KinEASE-TK kit), LTC; format: biochemical; details: kinase inhibition
Source text: (§1) Assays using an in vitro kinase assay kit (HTRF KinEASE-TK kit) can be used to study the inhibitory activity of compounds described herein with respect to EGFR mutants such as EGFR^L858R, EGFR^L58R/T790M, and EGFR^L858R/T790M/C^797S.

Ba/F3 EGFR-Del19/C797S = Ba/F3 EGFR-Del19/C797S (Homo sapiens, UniProt P00533, C797S, cells depend on it, form not given); assay: Ba/F3 viability assay (CellTiter-Glo), DC; format: cell-based; details: anti-proliferation, read-out: BaF3 DC IC50
Source text: (§2) Inhibition of cell proliferation can be studied using Ba/F3 viability assays, including the Promega CellTiter-Glo cell viability assay. This assay can be used to study the effect of compounds described herein in the following assays: (1) Ba/F3 Parental; (2) Ba/F3 EGFR-Del19/T790M; (3); Ba/F3 EGFR-Del19/C797S; and (4) Ba/F3 EGFR-Del19/T790M/C797S.

Ba/F3 EGFR-Del19/T790M = Ba/F3 EGFR-Del19/T790M (Homo sapiens, UniProt P00533, T790M, cells depend on it, form not given); assay: Ba/F3 viability assay (CellTiter-Glo), DT; format: cell-based; details: anti-proliferation, read-out: BaF3 DT IC50
Source text: as §2

EGFR^L858R = EGFR^L858R (Homo sapiens, UniProt P00533, L858R); assay: in vitro kinase assay (HTRF KinEASE-TK kit), L; format: biochemical; details: kinase inhibition
Source text: as §1

Ba/F3 Parental = assay: Ba/F3 viability assay (CellTiter-Glo), parental; format: cell-based; details: Mus musculus, BaF3, anti-proliferation
Source text: as §2

EGFR^L58R/T790M = EGFR^L58R/T790M (Homo sapiens, UniProt P00533, L858R/T790M); assay: in vitro kinase assay (HTRF KinEASE-TK kit), LT; format: biochemical; details: kinase inhibition
Source text: as §1

[1] = target: Ba/F3 EGFR-Del19/T790M/C797S (Homo sapiens, UniProt P00533, T790M/C797S, cells depend on it, form not given); assay: Ba/F3 viability assay (CellTiter-Glo), DTC; format: cell-based; details: anti-proliferation, read-out: BaF3 DTC IC50
Source text: as §2

Chain of EGFR^L58R/T790M (P00533 25-1210 T790M/L858R): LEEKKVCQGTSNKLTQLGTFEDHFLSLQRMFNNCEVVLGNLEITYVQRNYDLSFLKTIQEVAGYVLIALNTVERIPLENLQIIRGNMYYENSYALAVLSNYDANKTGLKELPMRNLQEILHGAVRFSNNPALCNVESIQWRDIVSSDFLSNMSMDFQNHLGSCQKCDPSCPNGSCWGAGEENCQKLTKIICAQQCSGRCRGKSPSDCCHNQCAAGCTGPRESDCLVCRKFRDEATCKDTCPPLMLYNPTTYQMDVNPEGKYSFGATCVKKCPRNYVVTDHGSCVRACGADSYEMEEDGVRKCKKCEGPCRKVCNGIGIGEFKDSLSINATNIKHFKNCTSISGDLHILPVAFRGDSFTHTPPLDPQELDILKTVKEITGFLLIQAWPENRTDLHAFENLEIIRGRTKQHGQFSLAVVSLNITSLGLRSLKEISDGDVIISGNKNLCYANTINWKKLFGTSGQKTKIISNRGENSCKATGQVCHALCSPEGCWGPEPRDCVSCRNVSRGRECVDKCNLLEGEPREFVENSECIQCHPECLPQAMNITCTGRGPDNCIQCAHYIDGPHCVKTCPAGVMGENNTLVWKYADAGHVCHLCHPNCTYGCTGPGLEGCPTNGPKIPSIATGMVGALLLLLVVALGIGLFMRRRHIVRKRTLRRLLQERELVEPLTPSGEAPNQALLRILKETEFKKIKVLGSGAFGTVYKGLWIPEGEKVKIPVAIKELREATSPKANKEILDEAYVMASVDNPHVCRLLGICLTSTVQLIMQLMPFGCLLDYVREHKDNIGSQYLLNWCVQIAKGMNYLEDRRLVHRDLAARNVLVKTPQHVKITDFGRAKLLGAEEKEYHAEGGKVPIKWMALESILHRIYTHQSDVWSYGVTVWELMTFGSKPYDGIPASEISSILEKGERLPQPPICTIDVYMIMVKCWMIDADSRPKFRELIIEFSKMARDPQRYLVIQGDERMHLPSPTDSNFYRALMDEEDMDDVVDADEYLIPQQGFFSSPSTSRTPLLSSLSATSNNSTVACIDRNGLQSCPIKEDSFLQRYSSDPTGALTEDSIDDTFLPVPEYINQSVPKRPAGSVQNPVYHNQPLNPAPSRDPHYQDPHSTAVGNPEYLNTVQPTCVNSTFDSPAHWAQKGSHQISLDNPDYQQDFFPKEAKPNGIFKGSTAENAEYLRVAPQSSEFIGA
Chain of EGFR^L858R (P00533 25-1210 L858R): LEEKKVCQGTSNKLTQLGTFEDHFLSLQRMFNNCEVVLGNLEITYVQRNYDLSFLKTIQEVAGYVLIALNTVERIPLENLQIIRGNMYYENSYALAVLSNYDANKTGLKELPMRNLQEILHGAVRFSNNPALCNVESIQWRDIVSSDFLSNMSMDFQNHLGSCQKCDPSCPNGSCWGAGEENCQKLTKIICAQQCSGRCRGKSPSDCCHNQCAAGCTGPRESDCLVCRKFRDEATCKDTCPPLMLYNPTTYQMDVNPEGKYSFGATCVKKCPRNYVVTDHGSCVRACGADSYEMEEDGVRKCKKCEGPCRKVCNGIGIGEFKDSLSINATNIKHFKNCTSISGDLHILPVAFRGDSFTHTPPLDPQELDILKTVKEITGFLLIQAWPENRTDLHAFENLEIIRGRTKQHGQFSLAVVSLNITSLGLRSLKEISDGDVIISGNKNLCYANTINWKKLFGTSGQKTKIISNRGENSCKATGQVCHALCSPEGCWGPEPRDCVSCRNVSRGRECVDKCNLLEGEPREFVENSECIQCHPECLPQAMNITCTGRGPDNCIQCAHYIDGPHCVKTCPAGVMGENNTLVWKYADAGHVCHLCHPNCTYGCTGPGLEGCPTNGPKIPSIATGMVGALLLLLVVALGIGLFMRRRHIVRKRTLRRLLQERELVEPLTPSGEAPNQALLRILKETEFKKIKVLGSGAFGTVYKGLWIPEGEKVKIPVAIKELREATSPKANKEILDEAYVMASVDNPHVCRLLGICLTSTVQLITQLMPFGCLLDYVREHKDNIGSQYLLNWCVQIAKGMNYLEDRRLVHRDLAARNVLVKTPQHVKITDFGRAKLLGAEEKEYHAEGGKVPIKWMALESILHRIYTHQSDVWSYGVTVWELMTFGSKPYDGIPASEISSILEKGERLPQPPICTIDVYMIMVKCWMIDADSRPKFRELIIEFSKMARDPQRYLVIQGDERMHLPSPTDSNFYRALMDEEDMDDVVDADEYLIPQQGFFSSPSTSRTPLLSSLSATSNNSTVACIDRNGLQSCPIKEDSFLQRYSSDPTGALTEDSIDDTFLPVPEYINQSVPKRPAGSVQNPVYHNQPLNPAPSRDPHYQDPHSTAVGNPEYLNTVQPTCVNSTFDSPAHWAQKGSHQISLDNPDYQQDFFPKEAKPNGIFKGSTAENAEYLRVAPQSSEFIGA
Chain of Ba/F3 EGFR-Del19/T790M/C797S (P00533 with tags, fused parts or gaps DEL746-750/T790M/C797S, form open): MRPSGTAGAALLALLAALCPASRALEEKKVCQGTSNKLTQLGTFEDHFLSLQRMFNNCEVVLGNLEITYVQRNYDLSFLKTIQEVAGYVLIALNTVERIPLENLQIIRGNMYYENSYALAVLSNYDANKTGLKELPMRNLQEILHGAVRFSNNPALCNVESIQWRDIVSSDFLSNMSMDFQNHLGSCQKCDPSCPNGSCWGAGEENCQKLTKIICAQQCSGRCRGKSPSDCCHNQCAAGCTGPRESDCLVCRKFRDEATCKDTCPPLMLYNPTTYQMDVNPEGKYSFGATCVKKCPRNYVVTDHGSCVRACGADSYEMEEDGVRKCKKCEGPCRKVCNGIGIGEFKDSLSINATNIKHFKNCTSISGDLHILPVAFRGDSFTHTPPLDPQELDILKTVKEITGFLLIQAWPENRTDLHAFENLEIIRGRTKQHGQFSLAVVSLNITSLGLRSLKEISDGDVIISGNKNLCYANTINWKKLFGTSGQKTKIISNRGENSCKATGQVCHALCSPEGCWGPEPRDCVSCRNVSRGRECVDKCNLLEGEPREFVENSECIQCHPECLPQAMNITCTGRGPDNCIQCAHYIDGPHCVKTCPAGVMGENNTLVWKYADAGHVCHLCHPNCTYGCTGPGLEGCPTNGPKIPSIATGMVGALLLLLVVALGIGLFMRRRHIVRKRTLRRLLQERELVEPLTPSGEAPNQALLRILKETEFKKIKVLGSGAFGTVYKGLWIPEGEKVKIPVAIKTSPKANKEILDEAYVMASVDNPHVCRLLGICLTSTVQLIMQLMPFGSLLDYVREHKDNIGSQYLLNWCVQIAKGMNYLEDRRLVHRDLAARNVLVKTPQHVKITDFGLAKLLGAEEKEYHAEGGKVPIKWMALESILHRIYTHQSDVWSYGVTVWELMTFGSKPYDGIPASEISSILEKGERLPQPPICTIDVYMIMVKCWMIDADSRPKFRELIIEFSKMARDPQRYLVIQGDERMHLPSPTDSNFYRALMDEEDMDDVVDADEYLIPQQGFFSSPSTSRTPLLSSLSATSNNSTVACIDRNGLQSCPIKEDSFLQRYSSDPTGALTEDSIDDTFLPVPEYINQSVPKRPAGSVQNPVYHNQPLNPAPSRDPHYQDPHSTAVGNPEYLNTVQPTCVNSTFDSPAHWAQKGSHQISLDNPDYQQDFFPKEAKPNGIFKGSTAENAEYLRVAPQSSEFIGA
Chain of Ba/F3 EGFR-Del19/T790M (P00533 with tags, fused parts or gaps DEL746-750/T790M, form open): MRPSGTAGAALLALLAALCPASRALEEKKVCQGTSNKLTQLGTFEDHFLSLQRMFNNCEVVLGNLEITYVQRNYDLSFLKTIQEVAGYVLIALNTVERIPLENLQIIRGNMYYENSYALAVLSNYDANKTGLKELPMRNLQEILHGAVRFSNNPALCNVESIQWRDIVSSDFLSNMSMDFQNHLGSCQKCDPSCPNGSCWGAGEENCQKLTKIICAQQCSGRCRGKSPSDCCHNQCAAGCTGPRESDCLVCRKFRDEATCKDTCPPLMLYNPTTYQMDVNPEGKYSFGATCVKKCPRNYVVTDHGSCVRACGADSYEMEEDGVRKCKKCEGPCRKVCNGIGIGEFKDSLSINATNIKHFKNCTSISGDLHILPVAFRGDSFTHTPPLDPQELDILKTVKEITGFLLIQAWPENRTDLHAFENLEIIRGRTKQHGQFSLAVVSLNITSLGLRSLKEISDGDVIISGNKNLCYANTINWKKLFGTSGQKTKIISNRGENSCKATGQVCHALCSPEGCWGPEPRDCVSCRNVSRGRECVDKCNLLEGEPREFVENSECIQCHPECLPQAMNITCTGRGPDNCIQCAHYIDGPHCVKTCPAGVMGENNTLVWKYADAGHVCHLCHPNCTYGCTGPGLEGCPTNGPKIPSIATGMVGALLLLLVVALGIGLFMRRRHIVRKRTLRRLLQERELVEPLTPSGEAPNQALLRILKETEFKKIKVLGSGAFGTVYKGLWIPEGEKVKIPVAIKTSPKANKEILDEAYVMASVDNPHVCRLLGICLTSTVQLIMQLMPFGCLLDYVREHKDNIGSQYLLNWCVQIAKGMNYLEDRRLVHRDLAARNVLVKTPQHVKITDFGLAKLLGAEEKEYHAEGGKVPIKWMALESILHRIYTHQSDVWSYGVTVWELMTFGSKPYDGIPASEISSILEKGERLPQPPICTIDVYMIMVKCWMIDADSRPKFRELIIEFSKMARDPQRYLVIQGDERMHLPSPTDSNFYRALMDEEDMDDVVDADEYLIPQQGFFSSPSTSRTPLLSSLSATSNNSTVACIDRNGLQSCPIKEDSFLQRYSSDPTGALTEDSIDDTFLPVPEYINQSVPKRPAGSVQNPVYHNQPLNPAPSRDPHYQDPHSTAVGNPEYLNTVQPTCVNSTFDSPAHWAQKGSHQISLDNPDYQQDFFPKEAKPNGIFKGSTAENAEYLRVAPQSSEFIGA

Compound	IC50 (EGFR^L858R/T790M/C^797S) [µM]	GI50 (Ba/F3 EGFR-Del19/C797S) [µM]	GI50 (Ba/F3 EGFR-Del19/T790M) [µM]	IC50 (EGFR^L858R) [µM]	IC50 (Ba/F3 Parental) [µM]	IC50 (EGFR^L58R/T790M) [µM]	GI50 [1] [µM]
CC1CCCOc2c(cnn2C)-c2nccc(n2)Nc2cc3c(cn2)c(N2CCC2)nn31 (stereo not drawn) [(1)]	< 0.01	0.01 to 0.1	< 0.01	< 0.01	0.1 to 1	< 0.01	< 0.01
CC1CCOc2c(cnn2CC2CC2)-c2nccc(n2)Nc2cc3c(cn2)c(N2CCC2)nn31 (stereo not drawn) [(2)]	< 0.01	0.01 to 0.1	0.01 to 0.1	0.01 to 0.1	0.1 to 1	< 0.01	0.01 to 0.1
Cn1ncc2c1OCCCn1nc(N3CCC3)c3cnc(cc31)Nc1ccnc-2n1 [(3)]	< 0.01	0.1 to 1	0.01 to 0.1	0.01 to 0.1	0.1 to 1	< 0.01	0.1 to 1
Cn1ncc2c1OCCC(C)(C)n1nc(N3CCC3)c3cnc(cc31)Nc1ccnc-2n1 [(4), 19-(azetidin-1-yl)-11,16,16-trimethyl-13-oxa-2,6,10,11,17,18,22,25-octazapentacyclo[15.5.2.1^3,7.0^8,12.0^20,24]pentacosa-1(22),3,5,7(25),8(12),9,18,20,23-nonaene]	< 0.01	0.1 to 1	0.1 to 1	0.1 to 1	≥ 1	< 0.01	0.1 to 1
CCC1CCOc2c(cnn2C)-c2nccc(n2)Nc2cc3c(cn2)c(N2CCC2)nn31 (stereo not drawn) [(5)]	< 0.01	0.01 to 0.1	0.01 to 0.1	0.01 to 0.1	≥ 1	< 0.01	0.01 to 0.1
CC1COc2c(cnn2C)-c2nccc(n2)Nc2cc3c(cn2)c(N2CCC2)nn3C1 (stereo not drawn) [(6)]	< 0.01	0.01 to 0.1	0.01 to 0.1	0.01 to 0.1	0.1 to 1	< 0.01	0.01 to 0.1
CC1CCOc2c(cnn2C)-c2nccc(n2)Nc2cc3c(cn2)c(N2CC(C(C)(C)O)C2)nn31 (stereo not drawn) [(8)]	< 0.01	0.01 to 0.1	0.01 to 0.1	0.01 to 0.1	0.1 to 1	< 0.01	0.01 to 0.1
CN1CCN(CC2CCCN2c2nn3c4cc(ncc24)Nc2ccnc(n2)-c2cnn(C)c2OCCC3)CC1 (stereo not drawn) [(10)]	< 0.01	0.1 to 1	0.1 to 1	0.1 to 1	0.1 to 1	< 0.01	0.1 to 1
CN(C)CC1CCCN1c1nn2c3cc(ncc13)Nc1ccnc(n1)-c1cnn(C)c1OCCC2 (stereo not drawn) [(11)]	< 0.01	0.1 to 1	0.1 to 1	0.1 to 1	0.1 to 1	< 0.01	0.1 to 1
CC1CCOc2c(cnn2C)-c2nccc(n2)Nc2cc3c(cn2)c(-c2cccn2CCN(C)C)nn31 (stereo not drawn) [(12), 2-[2-(11,16-dimethyl-13-oxa-2,6,10,11,17,18,22,25-octazapentacyclo[15.5.2.13,7.08,12.020,24]pentacosa-1(22),3,5,7(25),8(12),9,18,20,23-nonaen-19-yl)pyrrol-1-yl]-N,N-dimethyl-ethanamine]	< 0.01	0.01 to 0.1	0.01 to 0.1	0.01 to 0.1	0.1 to 1	< 0.01	0.01 to 0.1
CN(C)CC1CCN(c2nn3c4cc(ncc24)Nc2ccnc(n2)-c2cnn(C)c2OCCC3)C1 (stereo not drawn) [(13)]	< 0.01	0.1 to 1	0.01 to 0.1	0.01 to 0.1	0.1 to 1	< 0.01	0.01 to 0.1
CC1CCOc2ccncc2-c2nccc(n2)Nc2cc3c(cn2)c(N2CCC2)nn31 (stereo not drawn) [(14), 20-(azetidin-1-yl)-17-methyl-14-oxa-2,6,10,18,19,23,26-heptazapentacyclo[16.5.2.13,7.08,13.021,25]hexacosa-1(23),3,5,7(26),8(13),9,11,19,21,24-decaene]	< 0.01	< 0.01	< 0.01	< 0.01	0.01 to 0.1	< 0.01	< 0.01
CC1CCOc2c(cnn2C)-c2nccc(n2)Nc2cc3c(cn2)c(N2CC(C(=O)N(C)C)C2)nn31 (stereo not drawn) [(16)]	< 0.01	0.01 to 0.1	0.01 to 0.1	0.01 to 0.1	0.1 to 1	< 0.01	0.01 to 0.1
CC1CCOc2c(cnn2C)-c2nccc(n2)Nc2cc3c(cn2)c(N2CCC2)nn31 (stereo not drawn) [(33), 17-(azetidin-1-yl)-20,27-dimethyl-30-oxa-21,22,23,24,25,26,27,28-octazapentacyclopentacosa-2,4(14),5(22),6(23),12(24),13(15),16(18),17(25),19(21)-nonaene]	< 0.01	0.01 to 0.1	0.01 to 0.1	0.01 to 0.1	≥ 1	< 0.01	0.01 to 0.1
CN1CCN(CC2CCN(c3nn4c5cc(ncc35)Nc3ccnc(n3)-c3cnn(C)c3OCCC4)C2)CC1 (stereo not drawn) [(57)]	< 0.01	0.01 to 0.1	0.01 to 0.1	0.01 to 0.1	0.1 to 1	< 0.01	0.01 to 0.1
CC1CCCCOc2c(cnn2C)-c2nccc(n2)Nc2cc3c(cn2)c(N2CCC2)nn31 (stereo not drawn) [(58)]	< 0.01	0.01 to 0.1	0.01 to 0.1	0.01 to 0.1	≥ 1	< 0.01	0.01 to 0.1
COC(=O)C1CCCN1c1nn2c3cc(ncc13)Nc1ccnc(n1)-c1cnn(C)c1OCCC2 (stereo not drawn) [(61)]	0.01 to 0.1	0.1 to 1	0.1 to 1	0.1 to 1	≥ 1	< 0.01	0.1 to 1
Cn1ncc2c1OCCCn1nc(N3CCCC3CO)c3cnc(cc31)Nc1ccnc-2n1 (stereo not drawn) [(62)]	< 0.01	0.1 to 1	0.1 to 1	0.1 to 1	0.1 to 1	< 0.01	0.1 to 1
CC1CCOc2c(cnn2C)-c2nccc(n2)Nc2cc3c(cn2)c(-c2ccc(CN4CCN(C)CC4)o2)nn31 (stereo not drawn) [(63), 11,16-dimethyl-19-[5-[(4-methylpiperazin-1-yl)methyl]-2-furyl]-13-oxa-2,6,10,11,17,18,22,25-octazapentacyclo[15.5.2.13,7.08,12.020,24]pentacosa-1(22),3,5,7(25),8(12),9,18,20,23-nonaene]	< 0.01	< 0.01	0.01 to 0.1	< 0.01	0.1 to 1	< 0.01	0.01 to 0.1
CC1CCOc2c(cnn2C)-c2nccc(n2)Nc2cc3c(cn2)c(-c2cnn(C4CC4)c2)nn31 (stereo not drawn) [(64)]	< 0.01	0.01 to 0.1	0.01 to 0.1	0.01 to 0.1	0.1 to 1	< 0.01	0.01 to 0.1
Cn1ncc2c1OCCCn1nc(N3CCCC3C(=O)O)c3cnc(cc31)Nc1ccnc-2n1 (stereo not drawn) [(65)]	< 0.01	0.1 to 1	0.1 to 1	0.1 to 1	0.1 to 1	< 0.01	0.1 to 1
